#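 48-hour exposure; five concentrations; linearly interpolated endpoints. GI50 = concentration required for 50% inhibition of growth. At the TGI there is no net growth.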
# Key:
# Assay in all cases: NCI tumour cell line growth inhibition, 48 h
# MDA-MB-231 breast = system: MDA-MB-231 breast
# OVCAR-8 ovarian = system: OVCAR-8 ovarian
# HL-60(TB) leukemia = system: HL-60(TB) leukemia
# NCI-H522 lung = system: NCI-H522 lung
# HS 578T breast = system: HS 578T breast
# RPMI-8226 leukemia = system: RPMI-8226 leukemia
# KM12 colon = system: KM12 colon
# HCC-2998 colon = system: HCC-2998 colon
# OVCAR-4 ovarian = system: OVCAR-4 ovarian
# CCRF-CEM leukemia = system: CCRF-CEM leukemia
# PC-3 prostate = system: PC-3 prostate
# OVCAR-5 ovarian = system: OVCAR-5 ovarian
# UACC-257 melanoma = system: UACC-257 melanoma
# NCI-H23 lung = system: NCI-H23 lung
# A498 renal = system: A498 renal
# SK-MEL-5 melanoma = system: SK-MEL-5 melanoma
# SNB-75 CNS = system: SNB-75 CNS
# M14 melanoma = system: M14 melanoma
# ACHN renal = system: ACHN renal
# SF-295 CNS = system: SF-295 CNS
# HCT-116 colon = system: HCT-116 colon
# MOLT-4 leukemia = system: MOLT-4 leukemia
# NCI/ADR-RES ovarian = system: NCI/ADR-RES ovarian
# SF-268 CNS = system: SF-268 CNS
# HOP-62 NSCLC = system: HOP-62 NSCLC
# UACC-62 melanoma = system: UACC-62 melanoma
# SW-620 colon = system: SW-620 colon
# CAKI-1 renal = system: CAKI-1 renal
smiles,measurement,setting,value
COc1cccc2c1c(C1=C(c3cn(C)c4ccccc34)C(=O)NC1=O)cn2C,GI50,MDA-MB-231 breast,> 25 µM
same,TGI,MDA-MB-231 breast,> 25 µM
same,GI50,OVCAR-8 ovarian,> 25 µM
same,TGI,OVCAR-8 ovarian,> 25 µM
same,GI50,HL-60(TB) leukemia,> 25 µM
same,TGI,HL-60(TB) leukemia,> 25 µM
same,GI50,NCI-H522 lung,> 25 µM
same,TGI,NCI-H522 lung,> 25 µM
same,GI50,HS 578T breast,> 25 µM
same,TGI,HS 578T breast,> 25 µM
same,GI50,RPMI-8226 leukemia,> 25 µM
same,TGI,RPMI-8226 leukemia,> 25 µM
same,GI50,KM12 colon,> 25 µM
same,TGI,KM12 colon,> 25 µM
same,GI50,HCC-2998 colon,> 25 µM
same,TGI,HCC-2998 colon,> 25 µM
same,GI50,OVCAR-4 ovarian,> 25 µM
same,TGI,OVCAR-4 ovarian,> 25 µM
same,GI50,CCRF-CEM leukemia,> 25 µM
same,TGI,CCRF-CEM leukemia,> 25 µM
same,GI50,PC-3 prostate,> 25 µM
same,TGI,PC-3 prostate,> 25 µM
same,GI50,OVCAR-5 ovarian,> 25 µM
same,TGI,OVCAR-5 ovarian,> 25 µM
same,GI50,UACC-257 melanoma,> 25 µM
same,TGI,UACC-257 melanoma,> 25 µM
same,GI50,NCI-H23 lung,> 25 µM
same,TGI,NCI-H23 lung,> 25 µM
same,GI50,A498 renal,> 25 µM
same,TGI,A498 renal,> 25 µM
same,GI50,SK-MEL-5 melanoma,> 25 µM
same,TGI,SK-MEL-5 melanoma,> 25 µM
same,GI50,SNB-75 CNS,> 25 µM
same,TGI,SNB-75 CNS,> 25 µM
same,GI50,M14 melanoma,> 25 µM
same,TGI,M14 melanoma,> 25 µM
same,GI50,ACHN renal,> 25 µM
same,TGI,ACHN renal,> 25 µM
same,GI50,SF-295 CNS,> 25 µM
same,TGI,SF-295 CNS,> 25 µM
same,GI50,HCT-116 colon,> 25 µM
same,TGI,HCT-116 colon,> 25 µM
same,GI50,MOLT-4 leukemia,> 25 µM
same,TGI,MOLT-4 leukemia,> 25 µM
same,GI50,NCI/ADR-RES ovarian,> 25 µM
same,TGI,NCI/ADR-RES ovarian,> 25 µM
same,GI50,SF-268 CNS,> 25 µM
same,TGI,SF-268 CNS,> 25 µM
same,GI50,HOP-62 NSCLC,> 25 µM
same,TGI,HOP-62 NSCLC,> 25 µM
same,GI50,UACC-62 melanoma,> 25 µM
same,TGI,UACC-62 melanoma,> 25 µM
same,GI50,SW-620 colon,> 25 µM
same,TGI,SW-620 colon,> 25 µM
same,GI50,CAKI-1 renal,> 25 µM
same,TGI,CAKI-1 renal,> 25 µM
